Source: patent US20100047373A9, “Method for Extracting Plants of the Genus Pelargonium, Extract Produced According to Said Method, and Use Thereof” (EMSPHARM GMBH, priority 2005, published 2010)

Tested on: EMC virus/L929 (IFN) test model
Assay: Cytoprotective effect / IFN values in the EMC virus/L929 (IFN) test model
Assay type: cell-based, murine
Settings: determined from 8 standard curves
Description: Determining the Cytoprotective Effect by Obtaining the Values for IFN in the EMC Virus/L929 (IFN) Test Model
L929 (IFN) cells (batch no. 5577) were cultured, trypsinized, washed and counted in 100-mL culture dishes. The suspension was adjusted to 2×10^5 cells/mL and sown in microtitre plates with 2×10^4 cells/well, which were incubated over night at 37° C., 5% CO2. After that, the supernatant was replaced by 100 μL each medium control, cell control, virus control with rMuIFN-γ control, rMuIFN-γ standard (100 U/mL) and test solution, all of which were diluted lineally.
The samples were incubated for exactly eight hours at 37° C., 5% CO2. After the end of the incubation time, 100 μL each of the vital suspension used were pipetted into the vital and interferon controls and into the test solutions and again incubated over night at 37° C., 5% CO2.
After 22 hours, fully developed viral activity appeared (cell lysis must be distinctly pronounced in the vital control), so that the lysis was interrupted. The supernatants were discarded via the wash basin 100 μl of a 0.5% crystal violet solution were pipetted into each well. […] The absorption of the crystal violet staining was determined on the ELISA reader at 550 nm. […] The ED50 value of the rMuIFN-γ standard was at 1,076 U/mL (determined from 8 standard curves).

Substance: rMuIFN-γ standard: rMuIFN-γ standard (100 U/mL) used in the EMC virus/L929 (IFN) test
- ED50 value of the rMuIFN-γ standard: 1,076 U/mL
